Measured values reported in article PMC5151175 (Journal of medicinal chemistry, 2016).
Entries after “also recorded” stand apart in the source; their conditions may differ.

Key:
HIV-1/NL4-3 = format: cell-based; conditions: for IC50 NL4-3: wild-type HIV-1/NL4-3 replication, mean ± SD of three separate experiments, NS = no selective anti-HIV activity (CC50/IC50 < 5)
in vitro metabolic = format: in vitro ADME; conditions: human, microsomes
[1] = system: NL4-3 Env-mediated cell–cell fusion; assay: fusion assay; format: cell-based, HIV-1; conditions: average of two independent tests
[2] = system: NL4-3 infection of TZM-bl cells; assay: TZM-bl assay; format: cell-based, HIV-1; conditions: at 2 µM; average of two tests
NL4-3/V370A = format: cell-based, HIV-1; conditions: IC50(NL4-3/V370A)/IC50(NL4-3) ratio
[3] = human, in vivo; cited from earlier work
HIV-1 integrase = conditions: cited from earlier work
HIV in MT-4 cells = conditions: cited from earlier work; for IC50: read-out: IC50, anti-HIV activity in MT-4 cells
[4] = system: HIV replication in MT-2 cell; conditions: read-out: IC50, HIV replication in MT-2 cells; cited from earlier work

O=C(/C=C/c1ccc2c(c1)OCO2)N1CCNCC1 [14c]
IC50 NL4-3 (HIV-1/NL4-3): inactive

C=C(C)[C@@H]1CC[C@]2(C(=O)N3CCN(C(=O)/C=C/c4ccc5c(c4)OCO5)CC3)CC[C@]3(C)[C@H](CC[C@@H]4[C@@]5(C)CC[C@H](OC(=O)CC(C)(C)C(=O)O)C(C)(C)[C@@H]5CC[C@]43C)[C@@H]12 [18c]
microsomal CLint (in vitro metabolic): 54 µL/min/mg | inhibition of NL4-3 Env-mediated cell–cell fusion [1]: no activity; also recorded: did not inhibit | inhibition of NL4-3 infection of TZM-bl cells [2]: no inhibition; also recorded: no activity | RFC (resistance fold change) (NL4-3/V370A): 7.89

C=C(C)[C@@H]1CC[C@]2(C(=O)NCCCCCCCNC(C)=O)CC[C@]3(C)[C@H](CC[C@@H]4[C@@]5(C)CC[C@H](O)C(C)(C)[C@@H]5CC[C@]43C)[C@@H]12 [A43D]
inhibition of NL4-3 Env-mediated cell–cell fusion [1]: strongly inhibited | inhibition of NL4-3 infection of TZM-bl cells [2]: totally inhibited

C=C(C)[C@@H]1CC[C@]2(C(=O)O)CC[C@]3(C)[C@H](CC[C@@H]4[C@@]5(C)CC[C@H](OC(=O)CC(C)(C)C(=O)O)C(C)(C)[C@@H]5CC[C@]43C)[C@@H]12 [compound 2, 3-O-(3′,3′-dimethylsuccinyl)-betulinic acid]
inhibition of NL4-3 Env-mediated cell–cell fusion [1]: no activity | elimination half-life t1/2 [3]: 56.3 to 69.5 h | inhibition of NL4-3 infection of TZM-bl cells [2]: no inhibition

O=C(O)/C=C/c1ccc(O)c(O)c1 [compound 5, 3,4-dihydroxycinnamic acid]
IC50 NL4-3 (HIV-1/NL4-3): no selectivity

O=C(/C=C/c1cc(O)c(O)cc1[N+](=O)[O-])O[C@H](Cc1cc(O)c(O)cc1[N+](=O)[O-])C(=O)O [compound 6, 6′,6″-Dinitrorosmarinic acid]
HIV-1 integrase inhibition (HIV-1 integrase): potent HIV-1 integrase inhibition | anti-HIV activity in MT-4 cells (HIV in MT-4 cells): moderate anti-HIV activity

O=C(/C=C/c1ccc(O)c2c1[C@H](C(=O)O)[C@@H](c1ccc(O)c(O)c1)O2)O[C@H](Cc1ccc(O)c(O)c1)C(=O)O [compound 7, (+)-Lithospermic acid]
HIV-1 integrase inhibitory activity (HIV-1 integrase): submicromolar range

O=C(/C=C/c1ccc(O)c(O)c1)O[C@@H]1C[C@](O)(C(=O)O)C[C@@H](OC(=O)/C=C/c2ccc(O)c(O)c2)[C@H]1O [compound 8, 3,5-Dicaffeoylquinic acid]
HIV-1 integrase inhibitory activity (HIV-1 integrase): active against HIV-1 integrase

C=C(C)[C@@H]1CC[C@]2(C(=O)N3CCNCC3)CC[C@]3(C)[C@H](CC[C@@H]4[C@@]5(C)CC[C@H](OC(=O)CC(C)(C)C(=O)O)C(C)(C)[C@@H]5CC[C@]43C)[C@@H]12 [compound 20]
fold less active than 2 against NL4-3 (HIV-1/NL4-3; compared with 2): 8 fold

(+)-erythro-7′-methylcarolignan E [11a]
IC50 (HIV in MT-4 cells): 6.3 µM

(−)-erythro-7′-methylcarolignan E [11b]
IC50 (HIV in MT-4 cells): 5.3 µM

L-Chicoric acid [compound 9]
IC50 [4]: 4.2 µM
